# System: Charles River CD-1 mice
# Assay: Intravenous acute tolerance in mice (LD50)
# Experimental: The relative toxicities of free metal, free ligand, metal chelate contrast agent and excipient of the present invention were determined by injecting samples of each into the tail vein of Charles River CD-1 mice (18-23 g, 25-35 days) at 0.02 mL/g. The observation period was 14 days.
# [1] = intravenous (tail vein) at 0.02 mL/g, CD-1 mice, 14 days observation, physiologic pH
Compound,LD50 [1],"Tolerance (in words) (summary of Table 1 data, intravenous in mice)","LD50 (mouse, in vivo, iv)"
O=C([O-])CN1CCNCCN(CC(=O)[O-])CCN(CC(=O)[O-])CC1.[Gd+3] [Gd(DO3A)],5.7 mmol/kg,highly tolerated,–
"CC(O)CN1CCN(CC(=O)O)CCN(CC(=O)O)CCN(CC(=O)O)CC1 (stereo not shown) [HP-DO3A, 1,4,7-tris-(carboxymethyl)-10-(2′-hydroxypropyl)-1,4,7,10-tetraazacyclododecane]",–,–,0.11 mmol/kg
"O=C([O-])CN1CCNCCN(CC(=O)[O-])CCN(CC(=O)[O-])CC1.O=C([O-])CN1CCNCCN(CC(=O)[O-])CCN(CC(=O)[O-])CC1.[Ca+2].[Ca+2].[Ca+2] [Ca[Ca(DO3A)]2, Calcium bis[1,4,7,10-tetraazacyclododecane-1,4,7-triacetatocalcium(II)]]",1.6 mmol/kg,–,–
"CC(O)CN1CCN(CC(=O)O)CCN(CC(=O)O)CCN(CC(=O)O)CC1.[Gd+3] (stereo not shown) [Gd(HP-DO3A), Gadolinium(III) 1,4,7-tris(carboxymethyl)-10-(2′-hydroxypropyl)-1,4,7,10-tetraazacyclododecane]",10 mmol/kg,–,–
"O=C(O)CN1CCNCCN(CC(=O)O)CCN(CC(=O)O)CC1 [DO3A, 1,4,7,10-tetraazacyclododecane-1,4,7-triacetic acid]",–,–,0.12 mmol/kg
"O=C(O)CN1CCN(CC(=O)O)CCN(CC(=O)O)CCN(CC(=O)O)CC1 [DOTA, 1,4,7,10-tetraazacyclododecane-N,N′N″,N″′-tetraacetic acid]",0.18 mmol/kg,–,–
"CC(O)CN1CCN(CC(=O)[O-])CCN(CC(=O)[O-])CCN(CC(=O)[O-])CC1.CC(O)CN1CCN(CC(=O)[O-])CCN(CC(=O)[O-])CCN(CC(=O)[O-])CC1.[Ca+2].[Ca+2].[Ca+2] (stereo not shown) [Ca[Ca(HP-DO3A)]2, Calcium bis[1,4,7-tris(carboxymethyl)-10-(2′-hydroxy)propyl-1,4,7,10-tetraazacyclododecanato-calcium(II)]]",1.3 mmol/kg,–,–
[Ca+2].[Cl-].[Cl-] [CaCl2],1.5 mmol/kg,–,–
[Gd+3].[OH-].[OH-].[OH-] [Gd(OH)3],0.1 mmol/kg,–,–
